Patent US20240101535A1, “DIHYDROISOQUINOLINONE DERIVATIVE AND APPLICATION THEREOF” (ETERN BIOPHARMA (SHANGHAI) CO., LTD., priority 2020, published 2024)
Counter-ions that a name gives are not always drawn.

Key:
[1] = test system: MV4-11 cells; test: MV4-11 cell proliferation inhibition experiment (CellTiter-Glo); format: cell-based; conditions: Homo sapiens, 144 h, 6 days, read-out: cell proliferation inhibitory activity
Description: Test Example 2: MV4-11 Cell (ATCC: CRL-9591) Proliferation Inhibition Experiment
ATP in living cells was quantitatively detected by CellTiter-Glo (Promega-G7573) Luminescence Cell Viability Assay Kit to determine the effect of the compounds to be tested on cell proliferation. • Step 1: MV4-11 cells were seeded in 96-well plates (Greiner-655098) at a density of 1,500 cells per well with a volume of 140 μL per well; Cell culture medium components included RPM11640 (Gibco-A10491-01)+10% FBS (Gibco-10099-141C)+1% Penicillin-Streptomycin (5,000 U/mL, Gibco-15070-063). • Step 2: On the day of cell seeding, the cells were treated with the compound to be tested. The compound to be tested was diluted with a 3-fold gradient, and a total of 9 concentration gradients were set. DMSO (Sigma, D2650) with 0.5% final concentration or a DMSO solution containing the compound to be tested was added per well with 2 or 3 replicate wells at each concentration point. The plates were incubated at 37° C. in a 5% CO2 incubator (Thermo Scientific Steri-Cycle 371) for 6 days. • Step 3: The cell viability in the control and treatment groups was detected with CellTiter-Glo Luminescent Cell Viability Assay Kit. 50 μL of CellTiter-Glo was added per well, mixed well, and incubated for 15 min at room temperature protected from light. According to the kit instructions, the chemiluminescence signal was read using a multifunctional microplate reader (EnVision, PerkinElmer).
The inhibition percentage (%) of the compound at each concentration point was calculated by the following formula:
Inhibition Percentage (%)=(1−signal value of the group treated with the compound/signal value of the group treated with DMSO)*100.
The value of cell proliferation semi-inhibitory concentration IC50 was calculated using GraphPad Prism software, and the results are shown in Table 2.

[2] = biological target: WDR5 protein (22-334aa) with MLL1 polypeptide (3672-3773aa) (Homo sapiens, UniProt P61964); test: WDR5-MLL PPI inhibitory activity test (HTRF); format: binding; conditions: His-tagged WDR5 and biotin-tagged MLL1 polypeptide
Source text: Test Example 1: WDR5-MLL PPI Inhibitory Activity Test
Effect of the compounds on WDR5 (WD Repeat Domain 5) and MLL1 (mixed-lineage leukemia 1) peptides at molecular level.
The effect of the compound on the interaction of WDR5 protein (22-334aa) with MLL1 polypeptide (3672-3773aa) was detected by HTRF (Homogeneous Time-Resolved Fluorescence) technology. When the N-terminal His-tagged WDR5 recognized by the Anti-6His-Eu cryptate donor interacts with the biotin-tagged MLL1 polypeptide recognized by the streptavidin-APC receptor, the donor and acceptor are pulled close enough to produce fluorescence resonance energy transfer (FRET). […] Therefore, the decrease in FRET signal can reflect the compound's inhibition on the interaction of WDR5 with MLL1 polypeptide.
The compound to be tested was diluted 3-fold with DMSO. […] Then the compound was diluted with reaction buffer (25 mM HEPES pH=7.5, 100 mM NaCl, 0.05% Tween 20) to control the final concentration of DMSO at 0.5%. In a 384-well plate, 1 μL of compound and 3 μL of 42 nM WDR5 protein were added, centrifuged at 1000 rpm for 1 min, incubated at room temperature for 60 min, followed by adding 3 μL of 333 nM MLL1 polypeptide with incubation at room temperature for 10 min, and followed by adding 3 μL of a mixed liquid of Anti-6His-Eu cryptate and streptavidin-APC with centrifugation at 1000 rpm for 1 mi and incubation at room temperature protected from light for 60 min, using a multifunction microplate reader (EnVision®2105) to read the signal. The following controls were set up per plate: control group (1 μL with 5% DMSO reaction buffer, 3 μL of 42 nM WDR5, 3 μL of MLL1 polypeptide, 3 μL of Anti-6His-Eu cryptate and streptavidin-APC). Blank group (1 μL reaction buffer with 5% DMSO, 3 μL reaction buffer, 3 μL MLL1 polypeptide, 3 μL Anti-6His-Eu cryptate and streptavidin-APC). The test data was calculated according to the signal ratio of two beams of fluorescence at different wavelengths: (665 nm signal/620 nm signal)*10000. […] The IC50 value was calculated using XLfit software.

Row | Structure (SMILES) | IC50 [1] | IC50 [2]
1 | CCOc1cc([C@H](C)N2C[C@@]3(CC3(F)F)c3c(CN4CCN(C)CC4)cc(Cn4ccnc4NC)cc3C2=O)ncc1F (single isomer, unassigned) [Compound 92, 2′-(-1-(4-ethoxy-5-fluoropyridine-2-yl)ethyl)-2,2-difluoro-7′-((2-(methylamino)-1H-imidazol-1-yl)methyl)-5′-((4-methylpiperazin-1-yl)methyl)-2′,3′-dihydro-1′H-spiro[cyclopropan-1,4′-isoquinoline]-1′-one formate salt] | 50 to 200 nM | < 20 nM
2 | CCOc1cc([C@@H](C)N2C[C@@]3(CC3(F)F)c3c(CN4CCN(C)CC4)cc(Cn4ccnc4NC)cc3C2=O)ncc1F (stereo in doubt) [Compound 93, 2′-(-1-(4-ethoxy-5-fluoropyridine-2-yl)ethyl)-2,2-difluoro-7′-((2-(methylamino)-1H-imidazol-1-yl)methyl)-5′-((4-methylpiperazin-1-yl)methyl)-2′,3′-dihydro-1′H-spiro[cyclopropan-1,4′-isoquinoline]-1′-one formate salt] | < 50 nM | < 20 nM
3 | CCOc1cc([C@@H](C)N2C[C@]3(CC3(F)F)c3c(CN(C)C)cc(Cn4ccnc4NC)cc3C2=O)ncc1F (stereo in doubt) [Compound 96, (S)-5′-((dimethylamino)methyl)-2′-((R)-1-(4-ethoxy-5-fluoropyridine-2-yl)ethyl)-2,2-difluoro-7′-((2-(methylamino)-1H imidazol-1-yl)methyl)-2′, 3′-dihydro-1′H-spiro[cyclopropan-1,4′-isoquinoline]-1′-one] | < 50 nM | < 20 nM
4 | CCOc1cc([C@H](C)N2CC3(CC3)c3c(CN4CCOCC4)cc(Cn4ccnc4NC)cc3C2=O)ncc1F [Compound 8] | 50 to 200 nM | < 20 nM
5 | CCOc1cc([C@H](C)N2CC3(CC3)c3c(CN(CC)CC)cc(Cn4ccnc4NC)cc3C2=O)ncc1F [Compound 10, (S)-5′-(diethylamino)methyl)-2′-(1-(4-ethoxy-5-fluoropyridine-2-ylethyl)-7′-((2-(methylamino)-1H-imidazol-1-yl)methyl)-2′,3′-dihydro-1′H-spiro[cyclopropan-1,4′-isoquinoline]-1′-one] | 50 to 200 nM | < 20 nM
6 | CNc1nccn1Cc1cc(CN(C)C)c2c(c1)C(=O)N([C@@H](C)c1cc(OC3CC3)c(F)cn1)CC21CC1 [Compound 14] | 50 to 200 nM | < 20 nM

Next, values leading:

Row | IC50 [1] | IC50 [2] | Structure (SMILES)
7 | < 50 nM | < 20 nM | CCOc1cc([C@H](C)N2CC3(CC3(F)F)c3c(CN(C)C)cc(Cn4ccnc4NC)cc3C2=O)ncc1C#N (stereo in doubt) [Compound 95, 6-(-1-(5′-((dimethylamino)methyl)-2,2-difluoro-7′-((2-(methylamino)-1H-imidazol-1-yl)methyl)-1′-one-1′H-spiro[cyclopropan-1,4′-isoquinoline]-2′(3′H)-yl)ethyl)-4-ethoxynicotinonitrileformate salt]
8 | 50 to 200 nM | < 20 nM | CNc1nccn1Cc1cc(CN(C)C)c2c(c1)C(=O)N([C@@H](C)c1cc(OC)c(C#N)cn1)CC21CC1 [Compound 2]
9 | < 50 nM | < 20 nM | CCOc1cc([C@H](C)N2CC3(CC3)c3c(CN(C)C)cc(Cn4ccnc4NC)cc3C2=O)ncc1C#N [Compound 3]
10 | < 50 nM | < 20 nM | CNc1nccn1Cc1cc(CN(C)C)c2c(c1)C(=O)N([C@@H](C)c1cnc(F)c(OC)c1)CC21CC1 [Compound 4]
11 | < 50 nM | < 20 nM | CNc1nccn1Cc1cc(CN(C)C)c2c(c1)C(=O)N([C@@H](C)c1cc(OC)c(F)cn1)CC21CC1 [Compound 5]
12 | 50 to 200 nM | < 20 nM | CCOc1cc([C@H](C)N2CC3(CCC3)c3c(CN(C)C)cc(Cn4ccnc4NC)cc3C2=O)ncc1F [Compound 18, (S)-5′-((dimethylamino)methyl)-2′-(1-(4-ethoxy-5-fluoropyridine-2-yl)ethyl)-7′-((2-(methylamino)-1H-imidazol-1-yl)methyl)-2′,3′-dihydro-1′H-spiro[cyclobutan-1,4′-isoquinoline]-1′-one]
